Assay results taken from PubChem BioAssay AID330 (DTP/NCI, 2004).
Values joined by “and” are separate entries in the source; they are usually repeats but may differ in a detail not shown here. Equal values may be shown once. Toxic doses and inconclusive results are not listed. Rule for the calls: active = survival T/C of 150% or more; inactive = T/C below 125% in these data.

System: P388 leukemia ip, CD2F1 mice, survival T/C
Assay: NCI In Vivo Anticancer Drug Screen. Data for tumor model P388 Leukemia (intraperitoneal) in CD2F1 (CDF1) mice
Conditions: endpoint: median survival time, higher = longer survival
Summary of the method: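 Mice carrying the transplanted tumor received test compound or vehicle. Survival was recorded in each group, and the value is the treated-group measurement divided by that of the vehicle-treated control group.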

[1] = dose: 50.0 mg/kg/injection, schedule: Q01DX009 (ip), vehicle: saline
[2] = dose: 100.0 mg/kg/injection, schedule: Q01DX009 (ip), vehicle: saline
[3] = dose: 25.0 mg/kg/injection, schedule: Q01DX009 (ip), vehicle: water
[4] = dose: 50.0 mg/kg/injection, schedule: Q01DX009 (ip), vehicle: water
[5] = dose: 50.0 mg/kg/injection, schedule: Q01DX009 (ip), vehicle: Klucel (hydroxypropylcellulose) (HPC)
[6] = dose: 100.0 mg/kg/injection, schedule: Q01DX009 (ip), vehicle: Klucel (hydroxypropylcellulose) (HPC)
[7] = dose: 200.0 mg/kg/injection, schedule: Q01DX009 (ip), vehicle: Klucel (hydroxypropylcellulose) (HPC)
[8] = dose: 12.5 mg/kg/injection, schedule: Q01DX009 (ip), vehicle: saline
[9] = dose: 25.0 mg/kg/injection, schedule: Q01DX009 (ip), vehicle: saline

Measured: T/C

O=S1(=O)c2ccccc2C(N2CCCCC2)C1CCCCC1C(N2CCCCC2)c2ccccc2S1(=O)=O (stereo unspecified)
inactive: dose: 100.0 mg/kg/injection, schedule: Q04DX002 (ip), vehicle: saline with Tween-80 100 % of control | dose: 200.0 mg/kg/injection, schedule: Q04DX002 (ip), vehicle: saline with Tween-80 98 % of control | dose: 400.0 mg/kg/injection, schedule: Q04DX002 (ip), vehicle: saline with Tween-80 99 % of control

CCN(CC)CCCC(C)Nc1nc(-c2ccc(OC)cc2)nc2cc(Cl)ccc12 (stereo unspecified)
inactive: dose: 50.0 mg/kg/injection, schedule: Q01DX005 (ip), vehicle: saline 102 % of control | dose: 100.0 mg/kg/injection, schedule: Q01DX005 (ip), vehicle: saline 93 % of control

O=C(O)CN(CCN(CC(=O)O)CC(=O)O)CC(=O)O.[O]=[Mo]1[O][Mo](=[O])[O]1
inactive: [1] 89 % of control | [2] 90 % of control

ClCCc1cnc[nH]1
inactive: dose: 6.25 mg/kg/injection, schedule: Q01DX009 (ip), vehicle: water 101 % of control | dose: 12.5 mg/kg/injection, schedule: Q01DX009 (ip), vehicle: water 101 % of control | [3] 108 % of control | [4] 110 % of control | dose: 100.0 mg/kg/injection, schedule: Q01DX009 (ip), vehicle: water 95 % of control

CNC(=O)O[C@H]1C(=O)O[C@@H]2C[C@H]3C(C)=C(O)C(=O)C[C@]3(C)[C@H]3[C@@H](O)[C@H](O)[C@@]4(C(=O)OC)OC[C@]32[C@@H]14
inactive: dose: 1.0 mg/kg/injection, schedule: Q01DX005 (ip), vehicle: Klucel (hydroxypropylcellulose) (HPC) 105 % of control | dose: 2.0 mg/kg/injection, schedule: Q01DX005 (ip), vehicle: Klucel (hydroxypropylcellulose) (HPC) 105 % of control | dose: 4.0 mg/kg/injection, schedule: Q01DX005 (ip), vehicle: Klucel (hydroxypropylcellulose) (HPC) 102 % of control and 108 % of control | dose: 8.0 mg/kg/injection, schedule: Q01DX005 (ip), vehicle: Klucel (hydroxypropylcellulose) (HPC) 102 % of control | dose: 16.0 mg/kg/injection, schedule: Q01DX005 (ip), vehicle: Klucel (hydroxypropylcellulose) (HPC) 101 % of control | dose: 125.0 micrograms/kg/injection, schedule: Q01DX005 (ip), vehicle: Klucel (hydroxypropylcellulose) (HPC) 103 % of control | dose: 250.0 micrograms/kg/injection, schedule: Q01DX005 (ip), vehicle: Klucel (hydroxypropylcellulose) (HPC) 95 % of control | dose: 500.0 micrograms/kg/injection, schedule: Q01DX005 (ip), vehicle: Klucel (hydroxypropylcellulose) (HPC) 95 % of control | dose: 1000.0 micrograms/kg/injection, schedule: Q01DX005 (ip), vehicle: Klucel (hydroxypropylcellulose) (HPC) 99 % of control

CN(C)c1ccc(C2=CC(c3ccc(N(C)C)cc3)(c3ccc(C(F)(F)F)cc3)C=C(c3ccc(N(C)C)cc3)S2)cc1
inactive: dose: 100.0 mg/kg/injection, schedule: Q01DX001 (ip), vehicle: Klucel (hydroxypropylcellulose) (HPC) 101 % of control | dose: 200.0 mg/kg/injection, schedule: Q01DX001 (ip), vehicle: Klucel (hydroxypropylcellulose) (HPC) 92 % of control

Cc1ccnc(NS(=O)(=O)c2ccc(N=Nc3c(O)n(-c4ccccc4)n(-c4ccccc4)c3=O)cc2)n1
inactive: [5] 86 % of control | [6] 86 % of control | [7] 91 % of control

c1ccc(C2NCCc3ccccc32)cc1 (stereo unspecified)
inactive: dose: 50.0 mg/kg/injection, schedule: Q01DX005 (ip), vehicle: Klucel (hydroxypropylcellulose) (HPC) 97 % of control | dose: 100.0 mg/kg/injection, schedule: Q01DX005 (ip), vehicle: Klucel (hydroxypropylcellulose) (HPC) 105 % of control | dose: 200.0 mg/kg/injection, schedule: Q01DX005 (ip), vehicle: Klucel (hydroxypropylcellulose) (HPC) 100 % of control

O=C(CC(=O)N1CCN(c2ccccn2)CC1)N1CCN(c2ccccn2)CC1
inactive: [1] 101 % of control | [2] 102 % of control

C1CCC(N=C(NC2CCCCC2)N2CCOCC2)CC1
inactive: dose: 6.25 mg/kg/injection, schedule: Q01DX009 (ip), vehicle: saline 99 % of control | [8] 99 % of control | [9] 100 % of control | [1] 89 % of control

COc1c2occc2c(NC(=O)C(F)(F)F)c2ccc(=O)oc12
inactive: dose: 100.0 mg/kg/injection, schedule: Q04DX002 (ip), vehicle: saline 100 % of control | dose: 200.0 mg/kg/injection, schedule: Q04DX002 (ip), vehicle: saline 101 % of control

O=NN(C(=O)NC1CCC(O)CC1)C1CCC(O)CC1 (stereo unspecified)
inactive: dose: 25.0 mg/kg/injection, schedule: Q01DX001 (ip), vehicle: distilled water + Tween-80 102 % of control | dose: 50.0 mg/kg/injection, schedule: Q01DX001 (ip), vehicle: distilled water + Tween-80 99 % of control | dose: 100.0 mg/kg/injection, schedule: Q01DX001 (ip), vehicle: distilled water + Tween-80 106 % of control | dose: 200.0 mg/kg/injection, schedule: Q01DX001 (ip), vehicle: distilled water + Tween-80 101 % of control

CCN(CC)C/C=C(/C)CCC=C(C)C
inactive: dose: 5.0 mg/kg/injection, schedule: Q04DX002 (ip), vehicle: saline with Tween-80 103 % of control | dose: 10.0 mg/kg/injection, schedule: Q04DX002 (ip), vehicle: saline with Tween-80 99 % of control | dose: 20.0 mg/kg/injection, schedule: Q04DX002 (ip), vehicle: saline with Tween-80 95 % of control

Cc1[nH]nc2c(Cc3ccccc3)n[nH]c(=O)c12
inactive: [5] 102 % of control | [6] 104 % of control | [7] 112 % of control

Cc1cc(OC(=O)Nc2cc([N+](=O)[O-])ccc2C)c(C)cc1I
inactive: [8] 99 % of control | [9] 97 % of control | [1] 100 % of control and 91 % of control | [2] 92 % of control | dose: 200.0 mg/kg/injection, schedule: Q01DX009 (ip), vehicle: saline 100 % of control

O=C(Nc1ccccc1)Nc1nccs1
inactive: dose: 50.0 mg/kg/injection, schedule: Q01DX009 (ip), vehicle: saline with Tween-80 92 % of control | dose: 100.0 mg/kg/injection, schedule: Q01DX009 (ip), vehicle: saline with Tween-80 96 % of control | dose: 200.0 mg/kg/injection, schedule: Q01DX009 (ip), vehicle: saline with Tween-80 93 % of control

CC1=C2CCCCC2(O)OC1=O (stereo unspecified)
inactive: dose: 100.0 mg/kg/injection, schedule: Q01DX001 (ip), vehicle: saline 100 % of control | dose: 200.0 mg/kg/injection, schedule: Q01DX001 (ip), vehicle: saline 100 % of control | dose: 400.0 mg/kg/injection, schedule: Q01DX001 (ip), vehicle: saline 103 % of control

C/C(=N\NC(=S)N1CCCCCC1)c1cc2ccccc2cn1
inactive: dose: 3.12 mg/kg/injection, schedule: Q01DX005 (ip), vehicle: distilled water + Tween-80 + alcohol 100 % of control | dose: 6.25 mg/kg/injection, schedule: Q01DX005 (ip), vehicle: Klucel (hydroxypropylcellulose) (HPC) 117 % of control | dose: 6.25 mg/kg/injection, schedule: Q01DX005 (ip), vehicle: distilled water + Tween-80 + alcohol 111 % of control | dose: 12.5 mg/kg/injection, schedule: Q01DX005 (ip), vehicle: Klucel (hydroxypropylcellulose) (HPC) 116 % of control | dose: 12.5 mg/kg/injection, schedule: Q01DX005 (ip), vehicle: distilled water + Tween-80 + alcohol 105 % of control | dose: 25.0 mg/kg/injection, schedule: Q01DX005 (ip), vehicle: Klucel (hydroxypropylcellulose) (HPC) 121 % of control | dose: 25.0 mg/kg/injection, schedule: Q01DX005 (ip), vehicle: distilled water + Tween-80 + alcohol 118 % of control

c1ccc(C2=NNC(c3ccccn3)=C3CCCCCCC3=N2)nc1
inactive: dose: 5.3 mg/kg/injection, schedule: Q01DX009 (ip), vehicle: water 110 % of control | dose: 8.0 mg/kg/injection, schedule: Q01DX009 (ip), vehicle: water 112 % of control | dose: 12.0 mg/kg/injection, schedule: Q01DX009 (ip), vehicle: water 112 % of control | dose: 18.0 mg/kg/injection, schedule: Q01DX009 (ip), vehicle: water 110 % of control | [3] 111 % of control | [4] 117 % of control
